Reference: patent publication US4618618A, “Compounds and compositions” (priority 1981, dated 1986)
Where a name gives a salt, the structure may show the parent alone. Read-outs that look alike come from different tables or passages of the source. One block for each compound: values may come before it.

Experiments:
[1] = Level of levamisole in the blood of cattle after injection (high pressure liquid chromatography)
[2] = system: Ostertagia, Trichostrongylus and Haemonchus; test: Anthelmintic efficacy in infected sheep (parasite counts at slaughter); assay type: in vivo
Experimental: To ensure that the compounds were tested in heavily infected animals sheep harbouring a heavy naturally acquired parasitic infection were chosen and further infected with larvae of the species Ostertagia, Trichostrongylus and Haemonchus. The infections were allowed to reach maturity. […] A second group of sheep, the controls, were injected with an aqueous solution of levamisole dihydrogen phosphate at a dose rate equivalent to 6 mg of levamisole base per kilogram of animal body weight.
Half of the sheep in each group were slaughtered 7 days after treatment and the parasites in the abomasum, small intestine, large intestine and lungs were counted.

[3] = Level of nitroxynil in the blood of cattle after injection (high pressure liquid chromatography)
liver fluke = conditions: mature and immature liver fluke; cited from earlier work
[4] = bovine, in vivo
in vivo = conditions: bovine, 10 mg/kg
[5] = cited from earlier work
helminth = conditions: ruminants sheep and cattle; cited from earlier work
[6] = cattle, injected solution in polyethylene glycol 200 (Example 2 (a)), 17 mg of the salt/kg, each of four animals
[7] = compared with levamisole dihydrogen phosphate

Structure (SMILES): N#Cc1cc(I)c(O)c([N+](=O)[O-])c1 [nitroxynil, 4-cyano-2-iodo-6-nitrophenol]
activity against liver fluke (liver fluke): effective against both mature and immature liver fluke

Structure (SMILES): c1ccc([C@H]2CN3CCSC3=N2)cc1 [levamisole, L-2,3,5,6-tetrahydro-6-phenylimidazo[2,1-b]thiazole]
base catalysed hydrolysis [5]: subject to base catalysed hydrolysis
activity as an anthelmintic agent relative to tetramisole (helminth): approximately twice as active as tetramisole

Structure (SMILES): c1ccc(C2CN3CCSC3=N2)cc1 (racemic) [tetramisole, D,L-2,3,5,6-Tetrahydro-6-phenylimidazo[2,1-b]thiazole]
base catalysed hydrolysis [5]: subject to base catalysed hydrolysis

Now from value to compound, other results behind:

level of levamisole in the blood 4 hours after the injection, % of the maximum level ([1]; cattle, injected solution in polyethylene glycol 200 (Example 2 (a)), 17 mg of the salt/kg, 4 hours): at least 50%
time to maximum level of levamisole in the blood [1, 6]: approximately 2 hours
duration of the level of levamisole in the blood (in words) [1, 7]: maintained for a longer period of time
rise of blood level of levamisole to a maximum (in words) [1, 7]: much more slowly
rise of blood level of levamisole to a maximum (in words) ([1]; compared with levamisole dihydrogen phosphate, listed as nitroxynil salt of levamisole): more slowly
levamisole levels obtained in the blood (in words) ([1]; parenteral administration): therapeutic levels
time to maximum level of nitroxynil in the blood [3, 6]: approximately 24 hours
rise of blood level of nitroxynil to a maximum (in words) ([3]; compared with nitroxynil N-ethyl-D-glucamine salt): much more slowly
nitroxynil levels obtained in the blood (in words) ([3]; parenteral administration): therapeutic levels
Structure (SMILES): N#Cc1cc(I)c(O)c([N+](=O)[O-])c1.c1ccc([C@H]2CN3CCSC3=N2)cc1 [Example 1, L-2,3,5,6-tetrahydro-6-phenylimidazo[2,1-b]thiazolium 4-cyano-2-iodo-6-nitrophenoxide]
eradication of the helminth infection ([2]; sheep slaughtered 7 days after treatment, injected 14.5 mg of the salt/kg in polyethylene glycol 200): either completely or essentially completely eradicated
eradication of the helminth infection ([2]; sheep slaughtered 28 days after treatment, injected 14.5 mg of the salt/kg in polyethylene glycol 200): either completely or essentially completely eradicated

time to maximum level of levamisole in the blood ([4]; 6 mg/kg): ≤ 1 h
Structure (SMILES): O=P(O)(O)O.c1ccc([C@H]2CN3CCSC3=N2)cc1 [levamisole dihydrogen phosphate, reference compound]
course of the level of levamisole in the blood (in words) ([4]; sc): quickly rises to a maximum and quickly declines
eradication of the helminth infection ([2]; sheep slaughtered 7 days after treatment, injected aqueous solution, 6 mg levamisole base/kg): either completely or essentially completely eradicated
eradication of the helminth infection ([2]; sheep slaughtered 28 days after treatment, injected aqueous solution, 6 mg levamisole base/kg): either completely or essentially completely eradicated

Tmax (in vivo): 4 h
Structure (SMILES): N#Cc1cc(I)c(O)c([N+](=O)[O-])c1 [nitroxynil N-ethyl-D-glucamine salt]
